We go through two compounds from US6884820B2, “5,6,7,8-tetrahydronaphthalen-2-yl-7-fluoroalkyl-heptatrienoic acid derivatives having serum glucose reducing activity” (Allergan, Inc., priority 2003, dated 2005).

In experiment [1] the target is T1, RARβ (Homo sapiens, UniProt P10826).
T1 sequence (P10826 1-455): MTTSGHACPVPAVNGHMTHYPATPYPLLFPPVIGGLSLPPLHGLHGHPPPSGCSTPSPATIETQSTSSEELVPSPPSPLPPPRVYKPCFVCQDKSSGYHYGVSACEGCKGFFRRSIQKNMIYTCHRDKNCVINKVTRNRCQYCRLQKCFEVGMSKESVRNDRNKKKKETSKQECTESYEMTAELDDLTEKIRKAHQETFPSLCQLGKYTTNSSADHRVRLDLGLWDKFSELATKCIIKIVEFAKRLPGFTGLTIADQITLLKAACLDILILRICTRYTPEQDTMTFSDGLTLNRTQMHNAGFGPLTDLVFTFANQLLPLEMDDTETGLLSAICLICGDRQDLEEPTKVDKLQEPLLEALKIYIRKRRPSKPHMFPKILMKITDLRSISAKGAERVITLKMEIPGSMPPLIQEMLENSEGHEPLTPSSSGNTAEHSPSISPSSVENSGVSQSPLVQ
The experiment in a line: ligand binding assay, RARβ.
Source text: (§1) The results of the ligand binding assay are expressed in Ki numbers.

Another experiment deals with T2, RARα (Homo sapiens, UniProt P10276).
T2 sequence (P10276 1-462): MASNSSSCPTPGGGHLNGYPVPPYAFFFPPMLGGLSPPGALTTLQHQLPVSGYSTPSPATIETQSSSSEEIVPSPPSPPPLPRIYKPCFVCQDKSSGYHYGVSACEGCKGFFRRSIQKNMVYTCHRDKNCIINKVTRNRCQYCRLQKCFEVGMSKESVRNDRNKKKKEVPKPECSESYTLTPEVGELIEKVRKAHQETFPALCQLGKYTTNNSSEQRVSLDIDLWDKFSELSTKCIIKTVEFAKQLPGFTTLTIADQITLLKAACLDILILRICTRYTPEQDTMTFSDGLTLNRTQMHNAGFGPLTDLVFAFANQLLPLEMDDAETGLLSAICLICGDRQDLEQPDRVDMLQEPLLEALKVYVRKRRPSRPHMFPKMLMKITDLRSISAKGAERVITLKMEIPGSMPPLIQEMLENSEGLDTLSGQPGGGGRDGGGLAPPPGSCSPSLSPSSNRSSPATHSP
The experiment is described as follows: ligand binding assay, RARα.

In a further experiment the target is T3, RXRγ (Homo sapiens, UniProt P48443).
T3 sequence (P48443 1-463): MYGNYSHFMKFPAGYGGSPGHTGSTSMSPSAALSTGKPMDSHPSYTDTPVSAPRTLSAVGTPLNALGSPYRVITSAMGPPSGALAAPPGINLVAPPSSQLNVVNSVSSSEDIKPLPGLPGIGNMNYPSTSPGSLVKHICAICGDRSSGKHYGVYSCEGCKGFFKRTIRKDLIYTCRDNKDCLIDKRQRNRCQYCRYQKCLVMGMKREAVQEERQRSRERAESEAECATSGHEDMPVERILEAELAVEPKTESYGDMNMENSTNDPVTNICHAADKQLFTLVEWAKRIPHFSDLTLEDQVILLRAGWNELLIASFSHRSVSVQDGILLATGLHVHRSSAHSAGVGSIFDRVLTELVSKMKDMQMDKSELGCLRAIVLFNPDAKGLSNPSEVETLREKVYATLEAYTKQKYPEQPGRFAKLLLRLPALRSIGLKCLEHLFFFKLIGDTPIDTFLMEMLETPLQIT
The experiment is described as follows: holoreceptor transactivation assay, RXRγ. The settings on record: for RXR γ transactivation efficacy as a percentage compared to the standard compound: value in parentheses, relative to standard compound of U.S. Pat. No. 6,114,533.

For the next experiment, the target named is T4, RXRβ (Homo sapiens, UniProt P28702).
T4 sequence (P28702 1-533): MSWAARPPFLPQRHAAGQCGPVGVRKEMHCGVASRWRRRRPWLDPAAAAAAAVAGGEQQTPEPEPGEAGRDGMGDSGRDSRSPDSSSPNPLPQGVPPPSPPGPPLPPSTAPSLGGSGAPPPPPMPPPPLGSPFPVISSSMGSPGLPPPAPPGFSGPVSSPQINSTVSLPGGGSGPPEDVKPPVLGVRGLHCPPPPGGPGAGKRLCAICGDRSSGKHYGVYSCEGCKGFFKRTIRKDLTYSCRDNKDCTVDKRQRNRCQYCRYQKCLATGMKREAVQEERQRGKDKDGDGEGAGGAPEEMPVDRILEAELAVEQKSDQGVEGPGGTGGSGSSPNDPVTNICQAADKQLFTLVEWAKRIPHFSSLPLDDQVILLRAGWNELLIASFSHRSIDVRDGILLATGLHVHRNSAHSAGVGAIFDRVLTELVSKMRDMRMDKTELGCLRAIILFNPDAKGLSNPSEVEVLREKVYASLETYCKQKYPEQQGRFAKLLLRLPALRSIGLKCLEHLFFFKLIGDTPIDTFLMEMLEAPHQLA
The experiment in a line: ligand binding assay, RXRβ.

The next experiment has as its target T5, RARγ (Homo sapiens, UniProt P13631).
T5 sequence (P13631 1-454): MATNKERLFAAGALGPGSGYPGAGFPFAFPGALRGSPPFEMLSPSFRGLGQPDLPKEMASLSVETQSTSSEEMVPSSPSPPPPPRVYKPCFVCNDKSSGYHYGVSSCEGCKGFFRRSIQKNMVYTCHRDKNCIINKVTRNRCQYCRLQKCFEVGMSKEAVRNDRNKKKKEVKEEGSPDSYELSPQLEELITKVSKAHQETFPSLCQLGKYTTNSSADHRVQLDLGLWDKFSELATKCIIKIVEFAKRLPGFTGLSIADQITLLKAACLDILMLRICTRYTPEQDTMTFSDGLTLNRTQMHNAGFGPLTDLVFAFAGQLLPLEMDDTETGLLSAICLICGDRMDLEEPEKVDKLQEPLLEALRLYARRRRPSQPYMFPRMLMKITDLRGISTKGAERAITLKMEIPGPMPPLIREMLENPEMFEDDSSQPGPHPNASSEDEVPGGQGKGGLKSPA
The experiment in a line: ligand binding assay, RARγ.

Experiment [2] deals with T6, RARβ (Homo sapiens, UniProt P10826).
T6 sequence (P10826 183-417 limits assumed): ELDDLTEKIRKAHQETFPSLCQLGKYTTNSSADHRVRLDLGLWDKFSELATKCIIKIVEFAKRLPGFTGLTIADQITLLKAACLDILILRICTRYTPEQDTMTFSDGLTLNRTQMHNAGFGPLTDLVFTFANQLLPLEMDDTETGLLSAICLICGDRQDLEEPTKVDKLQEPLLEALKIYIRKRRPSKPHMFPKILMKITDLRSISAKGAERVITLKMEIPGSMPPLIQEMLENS
The experiment in a line: chimeric receptor transactivation assay, RARβ. The conditions noted are these: for RAR β transactivation efficacy as a percentage compared to the standard compound: value in parentheses, relative to standard compound of U.S. Pat. No. 6,114,533.
Source text: (§2) Efficacy in a transactivation assay is expressed as a percentage of the maximum potency attained by the compound compared to a standard which, in this case, is the compound named (2E, 4E, 1′S, 2′S)-3-methyl-5-[2′-methyl-2′-(5,5,8,8-tetramethyl-5,6,7,8-tetrahydro-naphthalen-2-yl)-cyclopropyl]-penta-2,4-dienoic acid.
(§3) Particularly, the transactivation data pertaining to activation of the RAR receptors were obtained in the chimeric assay, and the transactivation data pertaining to the activation of RXR receptors were obtained in the holoreceptor assay.

A value given as a limit tells only on which side of the number the result lay.

Source text for RARα: as §1
Source text for RARγ: as §1
Source text for RXRβ: as §1
Source text for RXRγ: The results obtained in this assay are expressed in EC50 numbers, as they are also in the chimeric receptor transactivation assay.
as §2, §3

As for `CC(/C=C/C=C(c1cc2c(cc1O)C(C)(C)CCC2(C)C)C(F)(F)F)=C\C(=O)O` (stereo in doubt) [Compound 4, (2E,4E,6Z)-8,8,8-Trifluoro-7-(3-hydroxy-5,5,8,8-tetramethyl-5,6,7,8-tetrahydro-naphthalen-2-yl)-3-methyl-octa-2,4,6-trienoic acid], the Ki is 4400 nM at RARβ [1], 2400 nM at RARα, 2600 nM on RXRβ and 496 nM at RARγ. Besides, the concentration giving a half-maximal response (EC50) at RXRγ is 16 nM; at RARβ [2], greater than 500 nM. Moreover, the “RXR γ transactivation efficacy as a percentage compared to the standard compound” value on RXRγ was determined as 69%. Moreover, on RARβ [2], the “RAR β transactivation efficacy as a percentage compared to the standard compound” value is reported as roughly 30%.
Take `CCOc1cc2c(cc1\C(=C/C=C/C(C)=C/C(=O)O)C(F)(F)F)C(C)(C)CCC2(C)C` [Compound 6, (2E,4E,6Z)-7-(3-Ethoxy-5,5,8,8-tetramethyl-5,6,7 8-tetrahydro-naphthalen-2-yl)-8,8,8-trifluoro-3-methyl-octa-2,4,6-trienoic acid]: the inhibitory constant (Ki) at RARβ [1] is 372 nM; at RARα it was greater than 10000 nM; at RXRβ, 68 nM; at RARγ, greater than 10000 nM. The EC50 on RXRγ is 25 nM; at RARβ [2], 67 nM. For the same compound, the “RXR γ transactivation efficacy as a percentage compared to the standard compound” value at RXRγ came out at 17%. Also, the “RAR β transactivation efficacy as a percentage compared to the standard compound” value on RARβ [2] came out at 15%.
